According to patent US11739111B2, “Manufacture of trans-[tetrachlorobis(1H-indazole)ruthenate (III)] and compositions thereof” (Bold Therapeutics, Inc., priority 2017, dated 2023):
Values joined by “and” are separate entries in the source; they are usually repeats but may differ in a detail not shown here. Equal values may be shown once.

Tests used:
Assay type in all cases: physicochemical
[1] = Stability of Formula I-b in chloride-containing solutions versus pure water (aquation to Compound A); details: sodium chloride or hydrochloric acid solutions compared with pure water
[2] = Solution stability study of IT-139 bulk solution (HPLC peak area over time); details: for % Peak Area Unspecified: impurities; for % Peak Area RRT 1.09 / % Peak Area RRT 1.28: impurity
Protocol: HPLC Method 1 Assay and identity of sodium trans-[tetrachlorobis(1H-indazole) ruthenate (III)] was determined by high pressure liquid chromatography with UV detection at 292 nm. IT-139 drug product was dissolved in water at concentration of 1 mg/mL, and 10 μL was injected onto an Agilent Zorbax SB-C18 (3 μm, 4.6×150 mm) HPLC column. Mobile phase A consisted of 0.1% trifluoroacetic acid in water and mobile phase B consisted of 0.1% trifluoroacetic acid in acetonitrile. Separation was achieved by gradient flow at 1.0 mL/minute such that mobile phase A constituting from 90% to 10% from time zero to 12 minutes, with mobile phase B constituting from 10% to 90% over 12 minutes. The gradient was then reversed from 10% mobile phase A and 90% mobile phase B to 90% A and 10% B from 12 minutes to 13 minutes. This continued until the end of the run at 15 minutes. The analyte retention time was 7.7 minutes. Sample temperature was maintained at 5° C., and column temperature was maintained at 25° C.
HPLC Method 2 Two HPLC methods are used because two different impurities co-elute using HPLC Method 1. Related substances for IT-139 drug product were determined by high pressure liquid chromatography with UV detection at 292 nm. IT-139 drug product was dissolved in water at concentration of 1 mg/mL, and 10 μL was injected onto an Agilent Zorbax SB-C18 (3 μm, 4.6×150 mm) HPLC column. Mobile phase A consisted of 0.1% trifluoroacetic acid in water and mobile phase B consisted of 0.1% trifluoroacetic acid in acetonitrile. Separation was achieved by gradient flow at 1.0 mL/minute such that mobile phase A constituted from 90% to 10% from time zero to 15 minutes, with mobile phase B constituted from 10% to 90% over 15 minutes. The gradient was held at 10% A and 90% B from 15 minutes to 19.9 minutes. The gradient was then reversed to 90% A and 10% B from 19.9 minutes to 20 minutes, and was held until the end of the run at 26 minutes. Sample temperature was maintained at 5° C., and column temperature was maintained at 25° C.
Compound from Example 5 was prepared at room temperature (20° C.) using room temperature solutions, and refrigerated (2-8° C.) using cold (2-8° C.) solutions, for a total volume of 500 mL for each. Citric acid solution was prepared by dissolving 19.2 grams of citric acid in 1 L of water. Sodium citrate solution was prepared by dissolving 29.4 grams of sodium citrate in 1 L of water. Sodium citrate solution was added to the citric acid solution until the pH was increased from 2.0 to 3.4. Mannitol solution was prepared by dissolving 13.3 g in 200 mL of water. Solutions of Formula I-b were prepared by adding 16.6 mL of citrate buffer to 400 mL water. 3.33 g sodium trans[tetrachlorobis(1H-indazole)ruthenate(III)] was added to the solution and stirred for 10 minutes. 50 mL of mannitol solution was added followed by 33.4 mL of water for a final volume of 500 mL IT-139 bulk solution. The room temperature (18-22° C.) sample was stirred using a magnetic stir plate on the laboratory bench, and the refrigerated sample was stirred using a magnetic stir plate in a refrigerator (2-8° C.). Aliquots of 100 μL were taken from each sample immediately upon dissolution (T=0) and at time points of 0.5, 1, 2, 3, 4, 5, 6, 18, 24, 32, and 48 hours. Each sample was added to 1.9 mL methanol in an HPLC vial and mixed by vortex. […] HPLC chromatograms for IT-139 samples stored refrigerated or at room temperature at the 18 hour time point are shown in FIG. 2 and FIG. 3, respectively.

[3] = Stability of the isolated cesium intermediate as dry powder; details: ambient conditions
Source text: Another aspect of the invention is the introduction of step S-2 into the preparation of Formula I-b. Step S-2 involves the preparation of a cesium intermediate, Formula I-a. […] As stated above, indazolium trans-[tetrachlorobis(1H-indazole)ruthenate (III)] is isolated by filtration as what can best be described as a mud-like substance. The stability of this compound is improved by the presence of hydrochloric acid (chloride ions). Washing the filtrate with polar solvents (e.g. methanol) also lead to degradation. Therefore, the best practice is to prepare the indazolium trans-[tetrachlorobis(1H-indazole)ruthenate (III)], isolate by filtration, and use directly for S-2 without delay. S-2 consists of mixing indazolium trans-[tetrachlorobis(1H-indazole)ruthenate (III)] and cesium chloride in a suitable solvent. Suitable solvents can be alcohol with 1 to 5 carbon atoms, a diol with 2-4 carbon atoms, water, ketones with […], cyclic ethers containing 4 to 7 carbon atoms, amides with 1 to 4 carbon atoms, DMSO, sulfolane, esters with 4 to 6 carbon atoms, chlorinated hydrocarbons with 1 or 2 carbon atoms, liquid aromatic hydrocarbons, nitriles with 2-6 carbon atoms, or mixture of thereof.

[4] = 20° C. (room temperature), 0.5 h
[5] = 20° C. (room temperature), 18 h

[Cl][Ru-]([Cl])([Cl])[Cl].[Na+].c1ccc2[nH]ncc2c1.c1ccc2[nH]ncc2c1 [Formula I-b, sodium trans-[tetrachlorobis(1H-indazole)ruthenate (III)]]
stability in solution [1]: much more stable
% Peak Area RT 7.7 min ([2]; 4° C. (refrigerated), 0 h): 97.05% and 97.1%
% Peak Area RT 7.7 min ([2]; 4° C. (refrigerated), 0.5 h): 97.3%
% Peak Area RT 7.7 min ([2]; 4° C. (refrigerated), 1 h): 97.0%
% Peak Area RT 7.7 min ([2]; 4° C. (refrigerated), 2 h): 97.0%
% Peak Area RT 7.7 min ([2]; 4° C. (refrigerated), 3 h): 96.8%
% Peak Area RT 7.7 min ([2]; 4° C. (refrigerated), 4 h): 96.5%
% Peak Area RT 7.7 min ([2]; 4° C. (refrigerated), 5 h): 96.6%
% Peak Area RT 7.7 min ([2]; 4° C. (refrigerated), 6 h): 96.8%
% Peak Area RT 7.7 min ([2]; 4° C. (refrigerated), 18 h): 95.4%
% Peak Area RT 7.7 min ([2]; 4° C. (refrigerated), 24 h): 94.8%
% Peak Area RT 7.7 min ([2]; 4° C. (refrigerated), 32 h): 94.9%
% Peak Area RT 7.7 min ([2]; 4° C. (refrigerated), 48 h): 89.8%
% Peak Area RT 7.7 min ([2]; 20° C. (room temperature), 0 h): 96.8%
% Peak Area RT 7.7 min [2, 4]: 96.8%
% Peak Area RT 7.7 min ([2]; 20° C. (room temperature), 1 h): 96.5%
% Peak Area RT 7.7 min ([2]; 20° C. (room temperature), 2 h): 96.3%
% Peak Area RT 7.7 min ([2]; 20° C. (room temperature), 3 h): 95.9%
% Peak Area RT 7.7 min ([2]; 20° C. (room temperature), 4 h): 95.4%
% Peak Area RT 7.7 min ([2]; 20° C. (room temperature), 5 h): 94.9%
% Peak Area RT 7.7 min ([2]; 20° C. (room temperature), 6 h): 94.0%
% Peak Area RT 7.7 min [2, 5]: 12.1%
% Peak Area Unspecified ([2]; 4° C. (refrigerated), 0 h): <0.1%
% Peak Area Unspecified ([2]; 4° C. (refrigerated), 0.5 h): <0.1%
% Peak Area Unspecified ([2]; 4° C. (refrigerated), 1 h): <0.1%
% Peak Area Unspecified ([2]; 4° C. (refrigerated), 2 h): 0.14%
% Peak Area Unspecified ([2]; 4° C. (refrigerated), 3 h): 0.16%
% Peak Area Unspecified ([2]; 4° C. (refrigerated), 4 h): 0.26%
% Peak Area Unspecified ([2]; 4° C. (refrigerated), 5 h): <0.1%
% Peak Area Unspecified ([2]; 4° C. (refrigerated), 6 h): <0.1%
% Peak Area Unspecified ([2]; 4° C. (refrigerated), 18 h): 0.11%
% Peak Area Unspecified ([2]; 4° C. (refrigerated), 24 h): <0.1%
% Peak Area Unspecified ([2]; 4° C. (refrigerated), 32 h): <0.1%
% Peak Area Unspecified ([2]; 4° C. (refrigerated), 48 h): <0.1%
% Peak Area Unspecified ([2]; 20° C. (room temperature), 0 h): <0.1%
% Peak Area Unspecified [2, 4]: <0.1%
% Peak Area Unspecified ([2]; 20° C. (room temperature), 1 h): <0.1%
% Peak Area Unspecified ([2]; 20° C. (room temperature), 2 h): 0.13%
% Peak Area Unspecified ([2]; 20° C. (room temperature), 3 h): 0.16%
% Peak Area Unspecified ([2]; 20° C. (room temperature), 4 h): 0.25%
% Peak Area Unspecified ([2]; 20° C. (room temperature), 5 h): 0.26%
% Peak Area Unspecified ([2]; 20° C. (room temperature), 6 h): 0.13%
% Peak Area Unspecified [2, 5]: 1.82%
% Peak Area RRT 1.09 ([2]; 4° C. (refrigerated), 0 h): 0.96%
% Peak Area RRT 1.28 ([2]; 4° C. (refrigerated), 0 h): 1.91%
% Peak Area RRT 1.09 ([2]; 4° C. (refrigerated), 0.5 h): 0.96%
% Peak Area RRT 1.28 ([2]; 4° C. (refrigerated), 0.5 h): 1.7%
% Peak Area RRT 1.09 ([2]; 4° C. (refrigerated), 1 h): 1.03%
% Peak Area RRT 1.28 ([2]; 4° C. (refrigerated), 1 h): 1.9%
% Peak Area RRT 1.09 ([2]; 4° C. (refrigerated), 2 h): 1.04%
% Peak Area RRT 1.28 ([2]; 4° C. (refrigerated), 2 h): 1.86%
% Peak Area RRT 1.09 ([2]; 4° C. (refrigerated), 3 h): 1.07%
% Peak Area RRT 1.28 ([2]; 4° C. (refrigerated), 3 h): 0.94%
% Peak Area RRT 1.09 ([2]; 4° C. (refrigerated), 4 h): 1.13%
% Peak Area RRT 1.28 ([2]; 4° C. (refrigerated), 4 h): 2.14%
% Peak Area RRT 1.09 ([2]; 4° C. (refrigerated), 5 h): 1.11%
% Peak Area RRT 1.28 ([2]; 4° C. (refrigerated), 5 h): 2.2%
% Peak Area RRT 1.09 ([2]; 4° C. (refrigerated), 6 h): 1.09%
% Peak Area RRT 1.28 ([2]; 4° C. (refrigerated), 6 h): 2.07%
% Peak Area RRT 1.09 ([2]; 4° C. (refrigerated), 18 h): 1.45%
% Peak Area RRT 1.28 ([2]; 4° C. (refrigerated), 18 h): 3.07%
% Peak Area RRT 1.09 ([2]; 4° C. (refrigerated), 24 h): 1.34%
% Peak Area RRT 1.28 ([2]; 4° C. (refrigerated), 24 h): 3.76%
% Peak Area RRT 1.09 ([2]; 4° C. (refrigerated), 32 h): 1.33%
% Peak Area RRT 1.28 ([2]; 4° C. (refrigerated), 32 h): 3.65%
% Peak Area RRT 1.09 ([2]; 4° C. (refrigerated), 48 h): 2.39%
% Peak Area RRT 1.28 ([2]; 4° C. (refrigerated), 48 h): 7.56%
% Peak Area RRT 1.09 ([2]; 20° C. (room temperature), 0 h): 0.88%
% Peak Area RRT 1.28 ([2]; 20° C. (room temperature), 0 h): 2.26%
% Peak Area RRT 1.09 [2, 4]: 1.08%
% Peak Area RRT 1.28 [2, 4]: 2.07%
% Peak Area RRT 1.09 ([2]; 20° C. (room temperature), 1 h): 1.14%
% Peak Area RRT 1.28 ([2]; 20° C. (room temperature), 1 h): 2.28%
% Peak Area RRT 1.09 ([2]; 20° C. (room temperature), 2 h): 1.22%
% Peak Area RRT 1.28 ([2]; 20° C. (room temperature), 2 h): 2.34%
% Peak Area RRT 1.09 ([2]; 20° C. (room temperature), 3 h): 1.35%
% Peak Area RRT 1.28 ([2]; 20° C. (room temperature), 3 h): 2.55%
% Peak Area RRT 1.09 ([2]; 20° C. (room temperature), 4 h): 1.47%
% Peak Area RRT 1.28 ([2]; 20° C. (room temperature), 4 h): 2.89%
% Peak Area RRT 1.09 ([2]; 20° C. (room temperature), 5 h): 1.58%
% Peak Area RRT 1.28 ([2]; 20° C. (room temperature), 5 h): 3.27%
% Peak Area RRT 1.09 ([2]; 20° C. (room temperature), 6 h): 1.88%
% Peak Area RRT 1.28 ([2]; 20° C. (room temperature), 6 h): 4%
% Peak Area RRT 1.09 [2, 5]: 25.2%
% Peak Area RRT 1.28 [2, 5]: 60.87%

[Cl][Ru-3]([Cl])([Cl])([Cl])([n+]1cc2ccccc2[nH]1)[n+]1cc2ccccc2[nH]1.[Cs+] [Formula I-a, cesium trans-[tetrachlorobis(1H-indazole)ruthenate (III)]]
stability of the dry powder [3]: stable at ambient conditions
